The text below walks through data of PMC5057504, “Amyloid-β 1–24 C-terminal truncated fragment promotes amyloid-β 1–42 aggregate formation in the healthy brain” (Acta Neuropathologica Communications, 2016).

Data set [1] in a line: ATR-FTIR spectroscopy of peptide assemblies. Type of data set: physicochemical. The following applies: 100 μM peptide (mix 50 μM each), incubated at 37 °C in PBS, 20 min to 6 days; hydrated film. The procedure: The in vitro aggregation of Aβ samples was monitored by ThT assay (Fig. 6a–c). ThT fluorescence emission was recorded at different incubation times at 37 °C in physiological buffer. […] Further, we recorded the emission fluorescence spectra of the samples incubated for 96 h at 37 °C after tyrosine excitation at 270 nm, which is also able to produce ThT fluorescence. […] The secondary structures of the peptide assemblies were also investigated by Fourier transform infrared (FTIR) spectroscopy in attenuated total reflection (ATR) (Fig. 6d). […] During incubation at 37 °C of H-Aβ42, this component increased in intensity while that at ~1695 cm^−1 decreased (Fig. 6d). These spectral changes have been already observed in the fibrillogenesis of Aβ peptides and of other proteins, and assigned to the conformational conversion towards fibrillar structures with a parallel orientation of the intermolecular β-sheets. […]
For the ATR-FTIR measurements, 2 μL of Aβ42 (at 100 μM concentration), of Aβ24 (at 100 μM concentration), or of the equimolar mixture of the two peptides (at 50 μM concentration each) were deposed on the single reflection diamond element of the ATR device (Quest, Specac, UK). Spectra were recorded after solvent evaporation to allow the formation of an hydrated film as previously described. […]

Another data set concerns wt mice brain. Kind of data set: Intracranial injection in wt mice: amyloid aggregate deposition (6E10 DAB, Congo red, ThT staining). The format is in vivo, mouse. The conditions noted are these: for ThT-positive aggregates in brain sections: 2.5 months after i.c. injection; for 6E10-positive aggregates in brain, 6 months after injection: i.c. injection of oligomeric peptide, 6E10 followed by HRP. The protocol:
Mice were anesthetized and perfused with 0.9 % saline, followed by 4 % PFA. The 30 μm cryosections of brain were blocked in PBS containing 10 % goat serum and 0.1 % Triton X-100 for 1 h at room temperature before being incubated overnight at 4 °C with primary antibodies. The following day, the slides were rinsed in PBS and incubated at room temperature for 1 h with secondary antibody. The slides were processed using the ABC detection kit (Vector Laboratories). […] Immunofluorescence and ThT staining were performed on brain sections. Brain slices were washed three times in PBS and incubated for 1 h at room temperature in blocking solution (3 % BSA). Subsequently, the slides were washed 3 times and incubated overnight with specific antibodies. The next day, sections were washed in PBS and incubated for 2 h at room temperature with specific fluorochrome-conjugated secondary antibodies diluted in 3 % BSA in the dark. ThT solution was prepared as described above. Final solution was added to free floating slides for 1 min and very quickly washed with 80 % methanol followed by 3 washes with distilled water. Images were acquired by Virtual Slides microscope (VS120, Olympus). For quantification, both diffuse-plaques and dense-core plaques were considered, as described in [92]. Small dots and deposits at the slice edge were not counted. The entire surface of the slice was examined. For congo red histological staining, slices were air-dried on glass overnight, then stained with a 0.2 % congo red solution according to [93]. Specimens were acquired by transmittance polarized light microscopy, FITCH filtered epifluorescence. For quantification, bright field images were analyzed by color segmentation plugin-ImageJ software (NIH, Bethesda, MD). The entire area of deposits was considered.

The subject of the next data set is TNF-alpha. Nature of the data set: TNF-alpha ELISA in serum and brain of intracranially injected wt mice. Type of data set: in vivo, mouse. The conditions noted are these: wt mice 2.5 months after i.c. injection. (In general: In an ELISA, binding on a coated surface is turned into a signal by an enzyme label.)
Another data set relates to wt mice. Kind of data set: Behavioral tests (open field, social interaction, novel object recognition) after intracranial injection. The format is in vivo, mouse. The following applies: wt mice i.c. injected, compared with vehicle and age matched APP/PS1 mice. The procedure: Mice were placed in a multi-unit open field maze (ViewPoint instruments) with field chamber (25 cm long and 25 cm wide), and activity was recorded using ViewPoint video tracking software. Each quadrant was digitally divided into a peripheral and a central region using ViewPoint video tracking software. The central quadrants are collectively referred to as the center zone and peripheral quadrants are collectively referred to as the peripheral zone. Data were collected continually for 30 min and the distance traveled (cm), velocity (cm/s), and the distance traveled in the center zone versus the peripheral zone were all recorded and scored automatically. In the open field task ambulatory movements (valued as distance traveled and movement speeds) and anxiety-like behaviors (as the as distance traveled in the center zone versus the peripheral zone) can be assessed in response to a novel environment.
The social interaction test was used to measure how mice respond to a social partner during a 5-min test following isolation housing. Since isolation housing potentiates expression of innate territorial defensive responses, in this test we evaluated the reaction of mice to the presence of a new animal in free conditions in the same arena. […]
The test apparatus consisted of an open field box measuring 50 cm × 25 cm and all sessions were video-recorded. […]

The next data set has as its target T1, murine Aβ (Mus musculus, UniProt P12023).
T1 construct: co-aggregation of the injected peptide and endogenously produced mouse Aβ42, retained in the brain; from tissue; host or cells: brain homogenate (supernatant and pellet fractions) of injected wild-type mice
Nature of the data set: Immunoblot of brain homogenate fractions with murine-Aβ-specific antibody m3.2. Type of data set: in vivo. The following applies: wt mice analyzed 4 months after i.c. injection; supernatant and pellet. The protocol:
Animals were anesthetized and perfused with PBS before brains were removed, weighted and homogeneted in a mild hypotonic buffer (50 mM Tris pH 8, 150 mM NaCl, 5 mM EDTA supplemented with phosphatase and protease inhibitor, EDTA-free, Roche). Supernatants were then centrifuged for 1 h at 3000 × g to pellet insoluble material, including insoluble Aβ species. Samples were either frozen on dry ice or LDS sample buffer (Invitrogen) containg 5 % β-mercaptoethanol was immediately added. Pellets were directly resuspended in 20 μl of LDS sample buffer. 10 μl sample were loaded onto a Bolt 4–12 % Bis-Tris Plus Gels (Thermo Fisher) for Western Blot evaluation. Samples were separated using MES buffer and transferred onto a […] nitrocellulose membrane (Bio-Rad). Membranes were washed in TBS-Tween (150 mM NaCl, 50 mM Tris and 0.1 % (v/v) Tween-20) and incubated for 45 min at room temperature in blocking solution (5 % milk or 2.5 % serum bovine albumin in TBST). Membranes were subsequently probed overnight at 4 °C with primary antibodies diluted in TBS-T buffer. Membranes were washed extensively and incubated for 45 min at room temperature with horseradish peroxidase-conjugated (HRP) secondary antibody diluted in TBST buffer. Antibody-specific signals were detected using enhanced chemiluminescence reagents (Clarity Western ECL substrate, Bio-Rad).

T1 sequence (P12023 672-713 limits assumed): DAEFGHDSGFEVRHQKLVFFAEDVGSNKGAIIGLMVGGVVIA
Protocol for TNF-alpha: Stereotaxic intracranial injections in mice brains were made under a mixture of ketamine (100 mg/kg) and xylazine (10 mg/kg) anesthesia. After surgical exposure of dura mater, both the bregma and the skull surface served as the stereotaxic zero points. Using a Hamilton syringe, 4 μL of H-Aβ or vehicle (vehicle consists of physiological buffer−50 mM NaPi, 100 mM NaCl pH 7.4−) were injected into the neocortex (AP 1 mm, ML 2 mm, DV−2 mm) with a speed of 1.5 μL/min, the needle was kept in place for an additional minute before it was slowly drawn out. For each experiment 4 pmol of H-Aβ42, 4 pmol of H-Aβ24 and 2 pmol of H-Aβ42 plus 2 pmol of H-Aβ24 for the mix condition were injected, as described in [70, 90]. Different conditions were used for specific experiments as specified in the text. After suturing the incision, mice were maintained on a warm pad until recovery from the anesthesia, then returned to their cages.
Protocol for bEnd.3 cells: (ATCC® CRL2299™) were used as a representative BBB model. bEnd.3 cells were cultured at 37 °C, 5 % CO2/saturated humidity in DMEM supplemented with 10 % heat-inactivated fetal bovine serum (FBS), 1 % penicillin-streptomycin.
bEnd.3 cells were seeded at a concentration of 30000 cells/cm^2 onto geltrex-coated (thin layer; Gibco) transwell inserts (polycarbonate, 12 mm diameter, 3 μm pore size; Costar) until a monolayer was established.
To assess Aβ42 exchange across the BBB model, bEnd.3 cells were cultured upside-down on a transwells system as described above, until steady-state TEER had been reached. […] The level of fluorescence in the media collected was measured for 488-Aβ42 (λex = 503 nm and λem = 528 nm) or for FAM-Aβ42 (λex = 492 nm and λem = 518 nm) using a Synergy™ H4 Hybrid Multi-Mode Microplate Reader (BioTek). Relative fluorescence units were converted to concentration according to prepared standard, and were corrected for background fluorescence. […] Briefly, Aβ42 volume cleared (ΔVc) was calculated using the equation ΔVc = Clower × Vlower/Cupper, where Cupper and Clower are fluorescently-labeled Aβ42 concentrations in the donor and receiving compartments, respectively, and Vlower is the volume on the basolateral side. […] Permeability coefficients (P) were calculated by dividing against the surface area of the filter (1.12 cm^2). […]
Protocol for primary microglia: Primary microglia were obtained from mixed cultures prepared from the cerebral cortex of mice at the postnatal day 1 (P1-3). Microglia cells were isolated by shaking flasks for 45 min at 230 rpm at day 10 after plating. Cells were then seeded on poly-L-ornithine (Sigma) pre-coated wells at the density of 1,5×10^5 cell/mL in DMEM containing 20 % heat-inactivated fetal bovine serum (FBS) and incubated at 37 ° C in a humidified atmosphere of 5 % CO2 and 95 % air. Where indicated, cells were pre-treated for 45 min with protease inhibitors and EDTA 2.5 mM (Roche) which were directly added to the cell culture medium. […] When not differently indicated, for in vitro experiments microglia were treated with H-Aβ42 400 nM.
Aliquots of supernatant samples (200 μL) were loaded on nitrocellulose membrane Trans-Blot Transfer Medium (0.22 μm, Bio-Rad), by vacuum deposition on the Bio-Dot SF blotting apparatus (Bio-Rad). Serial dilution curves of Aβ42 synthetic protein were preliminarily run to obtain non-saturating condition of immunodetection. DB dots images were analysed by Image Lab™ software (Bio-Rad).
Aβ42 levels were determined using specific ELISA kit (Amyloid-beta (x-42) ELISA IBL, International) following manufacturer’s instructions. Briefly, 100 μL of sample was added into the pre-coated plate and was incubated overnight at 4 °C. After washing each well of the pre-coated plate, 100 μL of labeled antibody solution was added and the mixture was incubated for 1 h at 4 °C in the dark. After washing, chromogen was added and the mixture was incubated for 30 min at room temperature in the dark. After the addition of stop solution, the resulting color was assayed at 450 nm using a microplate absorbance reader (Synergy H4 Synergy™ H4 Microplate Reader, BioTek).

On to synthetic human Aβ1-24 peptide [H-Aβ24], for which the “ATR-FTIR Amide I band (secondary structure of the assemblies)” value in data set [1] was “two main peaks at ~1695 cm^−1 and ~1628 cm^−1”. Moreover, the “ThT-positive aggregates in brain sections” value in the data set on wt mice brain was “ThT-positive aggregates were detected”. In addition, in the data set with wt mice brain (4 pmol (mix 2 + 2 pmol)), the “6E10-positive aggregates in brain, 6 months after injection” value is given as “induced the formation of aggregates”. Further, the “6E10-positive aggregates in brain, 2.5 months after injection” value in the data set on wt mice brain (i.c. injection, 4 pmol (mix 2 + 2 pmol)) is recorded as “already detectable”. In the data set with TNF-alpha, the “TNF-alpha levels in serum and brains” value is given as “significant increase”. Further, the “Behavioral phenotype (open field, sociality task, NOR)” value in the data set with wt mice was “cognitive defects comparable to APP/PS1 mice”. The “m3.2 positive bands (murine Aβ) in brain homogenate fractions” value with murine Aβ is recorded as “presence of m3.2 positive bands”. Besides, in the data set on bEnd.3 cells, the “Effect of H-Aβ24 on the diffusion of fluorescently labeled scrambled H-Aβ42” value is “No effect” and the “H-Aβ42 apical-to-basolateral passage when pre-incubated with H-Aβ24, dot blot” value is listed as “decreased amount of H-Aβ42”.
Take Synthetic human Aβ1–42 [H-Aβ42]: in data set [1], the “ATR-FTIR Amide I band (secondary structure of the assemblies)” value is “higher intensity of the ~1628 cm^−1 peak”. Besides, the “ThT-positive aggregates in brain sections” value in the data set on wt mice brain is recorded as “only ThT-positive blood vessels”. In the data set with wt mice brain (4 pmol (mix 2 + 2 pmol)), the “6E10-positive aggregates in brain, 6 months after injection” value is recorded as “did not cause Aβ deposition”. Also, the “TNF-alpha levels in serum and brains” value in the data set on TNF-alpha is on record as “much less”. For the same substance, the “Behavioral phenotype (open field, sociality task, NOR)” value with wt mice is “some behavioral alterations”. Further, in the data set with primary microglia, the “Extracellular Aβ42 in microglia medium, ELISA with capture antibody 6E10 (N-terminal), detection 4G8” value is “lack of changes”; the “Extracellular Aβ42 in microglia medium, ELISA with capture antibody against the C-terminal domain” value is “significant decrease”; the “Extracellular Aβ42 in microglia medium, dot blot with C-terminal anti-Aβ42” value is on record as “reduction of extracellular Aβ42”.
Turning to “HiLyte Fluor™ 488-labeled Beta-Amyloid (1–42) [488-conjugated H-Aβ42]”, the Internalization by microglia result in the data set on primary microglia (primary microglia, 1 μM, 3 h of treatment) is recorded as “efficiently internalized”.
